Measured values published in paper PMC11288129, “Diversely evolved xibalbin variants from remipede venom inhibit potassium channels and activate PKA-II and Erk1/2 signaling” (BMC Biology, 2024).
Marks after values point to notes of the source that are not given here. Positions of bridges follow the written chain, without caps; N, C: chain ends. No end group written: not given here.

Key:
[1] = test system: hNav1.5; assay: TEVC inhibition, Nav1.5; format: cell-based, human; conditions: 1 µM, Xenopus oocytes, ND96, 18–22 °C, mean ± SEM, n ≥ 3
Text: (§1) For the expression of Kv channels rat Kv1.1 (GenBank accession number: NM_173095 [88, 89]), rKv1.2 (NM_012970 [90, 91]), human Kv1.3 (NM_002232 [92, 93]), rKv1.4 (NM_012971 [94, 95]), rKv1.6 (NM_023954 [96, 97]), hKv2.1 (NM_004975 [98, 99]), hKv3.1 (NM_004976 [100, 101]), rKv4.2 (NM_031739 [102, 103]), hKv10.1 (NM_172362 [104, 105]), hERG1 [Kv11.1, (NM_000238 [106, 107])], and Shaker IR [from Drosophila melanogaster, (NM_167595 [108, 109])], Nav channels [rNav1.2 (NM_012647 [42, 110]), rNav1.4 (NM_013178 [111, 112]), hNav1.5 (NM_198056 [113, 114]), mNav1.6 (NM_001077499 [115, 116]), BgNav [from Blattella germanica, (DQ466887 [117, 118])] and the auxiliary subunits rβ1 (NM_001271045 [119, 120]), hβ1 (NM_001037 [121, 122]), and TipE [from D. melanogaster, (NM_079196 [109, 123])], and Cav channels hCav3.1 [124, 125], hCav3.2 [126, 127], and hCav3.3 [128, 129] in Xenopus oocytes, the linearized plasmids were transcribed using the T7 or SP6 mMESSAGEmMACHINE transcription kit (Ambion, Austin, TX, USA). […]
(§2) Whole-cell currents of oocytes were recorded 1 to 3 days after injection. […] The current–voltage (IV) relationships were determined by 100-ms step depolarizations between − 90 and + 40 mV, using 5 mV increments. […]

[2] = test system: mNav1.6; assay: TEVC inhibition, Nav1.6; format: cell-based, mouse; conditions: 1 µM, Xenopus oocytes, ND96, 18–22 °C, mean ± SEM, n ≥ 3
Text: as §1, §2

[3] = test system: hKv10.1; assay: TEVC inhibition, Kv10.1; format: cell-based, human; parameters: unit not given here; conditions: 1 µM
Text: (§3) For the expression of Kv channels rat Kv1.1 (GenBank accession number: NM_173095 [88, 89]), rKv1.2 (NM_012970 [90, 91]), human Kv1.3 (NM_002232 [92, 93]), rKv1.4 (NM_012971 [94, 95]), rKv1.6 (NM_023954 [96, 97]), hKv2.1 (NM_004975 [98, 99]), hKv3.1 (NM_004976 [100, 101]), rKv4.2 (NM_031739 [102, 103]), hKv10.1 (NM_172362 [104, 105]), hERG1 [Kv11.1, (NM_000238 [106, 107])], and Shaker IR [from Drosophila melanogaster, (NM_167595 [108, 109])], Nav channels [rNav1.2 (NM_012647 [42, 110]), rNav1.4 (NM_013178 [111, 112]), hNav1.5 (NM_198056 [113, 114]), mNav1.6 (NM_001077499 [115, 116]), BgNav [from Blattella germanica, (DQ466887 [117, 118])] and the auxiliary subunits rβ1 (NM_001271045 [119, 120]), hβ1 (NM_001037 [121, 122]), and TipE [from D. melanogaster, (NM_079196 [109, 123])], and Cav channels hCav3.1 [124, 125], hCav3.2 [126, 127], and hCav3.3 [128, 129] in Xenopus oocytes, the linearized plasmids were transcribed using the T7 or SP6 mMESSAGEmMACHINE transcription kit (Ambion, Austin, TX, USA). Mature female animals were purchased from Nasco (Fort Atkinson, USA) and were housed in the Aquatic Facility (KU Leuven) in compliance with the regulations of the European Union (EU) concerning the welfare of laboratory animals as declared in Directive 2010/63/EU. The use of X. laevis oocytes was approved by the Animal Ethics Committee of the KU Leuven with the license number P186/2019. Stage V–VI oocytes were collected from anesthetized female X. laevis frog as previously described, with the frogs anesthetized by placement in 0.1% tricaine solution (amino benzoic acid ethyl ester; Merck, USA). Oocyte microinjection was performed using a microinjector (Drummond Scientifc®, USA), with a programmed cRNA injection volume of 4—50 nL, depending on the channel subtype. The oocytes were incubated in ND96 solution (96 mM NaCl, 2 mM KCl, 1.8 mM CaCl2, 2 mM MgCl2, and 5 mM HEPES, pH 7.4), supplemented with 50 mg/l gentamicin sulfate.
(§4) Electrophysiological measurements were performed at room temperature (18–22 °C) using the two-electrode voltage clamp (TEVC) technique. Data were obtained using a GeneClamp 500 amplifier (Axon Instruments, USA), and Clampex9 software (Axon Instruments), responsible for data acquisition and storage. Glass micropipettes were produced using glass capillaries (borosilicate WPI 1B120-6) and drawn in a WPI (World Precision Instruments, USA) manual stretcher. The bath and perfusion solutions were either the previously described ND96 (Nav and Kv channels) or calcium-free ND96 supplemented with 10 mM BaCl2 (Cav channels).
(§5) Whole-cell currents of oocytes were recorded 1 to 3 days after injection. Current and voltage electrodes were filled with 3 M KCl and their resistance was adjusted from 0.7 to 2.0 MΩ. Currents were sampled at 20 kHz (Nav channels) and 10 kHz (Kv and Cav channels) and filtered using a four-pole Bessel low-pass Bessel filter, at 1 kHz for sodium, and […] for potassium and calcium, except for the hERG ion channel, in which the currents were filtered at 1 kHz. Leak subtraction was performed using a -P/4 protocol. Kv1.x currents were evoked by 500 ms depolarizations to 0 mV followed by a 500-ms pulse to − 50 mV, from a holding potential of − 90 mV. Kv2.1, Kv3.1, and Kv4.2 currents were elicited by 500 ms pulses to + 20 mV from a holding potential of − 90 mV. Current traces of Kv10.1 were elicited by 2 s depolarization to 0 mV, from a holding potential of − 90 mV. Current traces of hERG1 channel were elicited by applying a + 40 mV prepulse for 2 s followed by a step of − 120 mV for 2 s. Sodium current traces were evoked by a 100 ms depolarization to 0 mV, from a holding potential of − 90 mV. The current–voltage (IV) relationships were determined by 100-ms step depolarizations between − 90 and + 40 mV, using 5 mV increments. […]

[4] = test system: BgNav; assay: TEVC current-voltage relationship (Vhalf), BgNav; format: cell-based, Blattella germanica; parameters: Vhalf, toxin inactivation, BgNav / Vhalf, toxin activation, BgNav: unit not given here; conditions: for Vhalf, toxin activation, BgNav / Vhalf, toxin inactivation, BgNav: 1 µM
Text: as §3, §4, §5

[5] = test system: hCav3.2; assay: TEVC inhibition, Cav3.2; format: cell-based, human; parameters: unit not given here; conditions: 1 µM
Text: as §3, §4, §5

[6] = test system: BgNav; assay: TEVC inhibition, BgNav; format: cell-based, Blattella germanica; parameters: Inhibition data, BgNav: unit not given here; conditions: 1 µM
Text: as §3, §4, §5

[7] = test system: rKv1.4; assay: TEVC inhibition, Kv1.4; format: cell-based, rat; parameters: unit not given here; conditions: 1 µM
Text: as §3, §4, §5

[8] = test system: mNav1.6; assay: TEVC current-voltage relationship (Vhalf), Nav1.6; format: cell-based, mouse; parameters: Vhalf, toxin inactivation, Nav1.6 / Vhalf, toxin activation, Nav1.6: unit not given here; conditions: for Vhalf activation shift, Nav1.6: 1 µM versus control (ND96); for Vhalf, toxin activation, Nav1.6 / Vhalf, toxin inactivation, Nav1.6: 1 µM
Text: as §3, §4, §5

Row | Sequence | inhibition of Nav1.5 [1] [%] | inhibition of Nav1.6 [2] [%] | Inhibition data, Kv10.1 ([3]; replicate 1) | Inhibition data, Kv10.1 ([3]; replicate 2) | Inhibition data, Kv10.1 ([3]; replicate 3) | Inhibition data, Kv10.1 ([3]; replicate 4) | Vhalf activation shift, BgNav ([4]; 1 µM versus control (ND96)) | Vhalf, toxin activation, BgNav ([4]; replicate 1) | Vhalf, toxin inactivation, BgNav ([4]; replicate 1) | Vhalf, toxin activation, BgNav ([4]; replicate 2) | Vhalf, toxin inactivation, BgNav ([4]; replicate 2) | Vhalf, toxin activation, BgNav ([4]; replicate 3) | Vhalf, toxin inactivation, BgNav ([4]; replicate 3) | Vhalf, toxin activation, BgNav ([4]; replicate 4) | Inhibition data, Cav3.2 ([5]; replicate 1) | Inhibition data, Cav3.2 ([5]; replicate 2) | Inhibition data, Cav3.2 ([5]; replicate 3) | Inhibition data, Cav3.2 ([5]; replicate 4) | inhibition of BgNav [6] | Inhibition data, BgNav ([6]; replicate 1) | further results
1 | RLFCIRHHKYCGHRPKRCCSGLFCRCNTFGTNCRCQSKGALGKLI (disulfide 4-19, 11-24, 18-35, 26-33) [xib1] | 26.1 ± 1.8 | 5.7 ± 1.2 | 0.0 | 0.0 | 0.0 | 0.0 | 2.1 mV | -20.8516 | -45.0763 | -24.1418 | -46.3574 | -27.3818 | -51.0148 | -26.78 | 0.0 | 0.0 | 0.0 | 0.0 | targeted | 10.1 | Inhibition data, BgNav ([6]; replicate 2): 7.7; Inhibition data, BgNav ([6]; replicate 3): 7.6; Inhibition data, BgNav ([6]; replicate 4): 7.6; Inhibition data, Kv1.4 ([7]; replicate 1): 0.0; Inhibition data, Kv1.4 ([7]; replicate 2): 0.0; Inhibition data, Kv1.4 ([7]; replicate 3): 0.0; Inhibition data, Kv1.4 ([7]; replicate 4): 0.0; Vhalf activation shift, Nav1.6 [8]: 1.9 mV; Vhalf, toxin activation, Nav1.6 ([8]; replicate 1): -19.6324; Vhalf, toxin inactivation, Nav1.6 ([8]; replicate 1): -54.1984; Vhalf, toxin activation, Nav1.6 ([8]; replicate 2): -25.3795; Vhalf, toxin inactivation, Nav1.6 ([8]; replicate 2): -54.8159; Vhalf, toxin activation, Nav1.6 ([8]; replicate 3): -25.7195; Vhalf, toxin inactivation, Nav1.6 ([8]; replicate 3): -56.7966; Vhalf, toxin activation, Nav1.6 ([8]; replicate 4): -23.7149; Vhalf, toxin inactivation, Nav1.6 ([8]; replicate 4): -53.558
2 | KRSCIRRFGRCDHRPNDCCYNSSCRCNLWGSNCRCQRMGLFQKWGK (disulfide 4-19, 11-24, 18-35, 26-33) [xib13] | 28.2 ± 3.4 | 10.7 ± 0.9 | 0.0 | 0.0 | 0.0 | 0.0 | 7.7*** mV | -17.0858 | -50.0173 | -22.9798 | -54.2542 | -20.8319 | -48.9373 | -18.4734 | 0.0 | 0.0 | 0.0 | 0.0 | targeted | 51.7 | Vhalf inactivation shift, BgNav ([4]; 1 µM versus control (ND96)): 0.2 mV; Vhalf, toxin inactivation, BgNav ([4]; replicate 4): -48.3513; Inhibition data, BgNav ([6]; replicate 2): 40.6; Inhibition data, BgNav ([6]; replicate 3): 30.9; Inhibition data, BgNav ([6]; replicate 4): 44.2; Inhibition data, Kv1.4 ([7]; replicate 1): 0.0; Inhibition data, Kv1.4 ([7]; replicate 2): 0.0; Inhibition data, Kv1.4 ([7]; replicate 3): 0.0; Inhibition data, Kv1.4 ([7]; replicate 4): 0.0; Vhalf activation shift, Nav1.6 [8]: 0.5 mV; Vhalf, toxin activation, Nav1.6 ([8]; replicate 1): -22.599; Vhalf, toxin inactivation, Nav1.6 ([8]; replicate 1): -56.1011; Vhalf, toxin activation, Nav1.6 ([8]; replicate 2): -28.3204; Vhalf, toxin inactivation, Nav1.6 ([8]; replicate 2): -61.4261; Vhalf, toxin activation, Nav1.6 ([8]; replicate 3): -27.6893; Vhalf, toxin inactivation, Nav1.6 ([8]; replicate 3): -56.3883; Vhalf, toxin activation, Nav1.6 ([8]; replicate 4): -20.1785; Vhalf, toxin inactivation, Nav1.6 ([8]; replicate 4): -49.5801
